Columns and labels:
[1] = biological target: sodium pump (Homo sapiens, UniProt P05023); assay type: cell-based; settings: for Slope of replot of A versus inhibitor concentration (unprotonated pump) / Slope of replot of B versus inhibitor concentration (protonated pump): 0.3 mM rubidium; for Slope of replot of A versus inhibitor concentration (unprotonated pump): Fig. 4a; for Slope of replot of B versus inhibitor concentration (protonated pump): Fig. 4b
[2] = biological target: sodium pump (Rattus norvegicus, UniProt P06685); assay type: cell-based
Chain of sodium pump (Rattus norvegicus, UniProt P06685) (Q63377 whole entry, other chains not shown): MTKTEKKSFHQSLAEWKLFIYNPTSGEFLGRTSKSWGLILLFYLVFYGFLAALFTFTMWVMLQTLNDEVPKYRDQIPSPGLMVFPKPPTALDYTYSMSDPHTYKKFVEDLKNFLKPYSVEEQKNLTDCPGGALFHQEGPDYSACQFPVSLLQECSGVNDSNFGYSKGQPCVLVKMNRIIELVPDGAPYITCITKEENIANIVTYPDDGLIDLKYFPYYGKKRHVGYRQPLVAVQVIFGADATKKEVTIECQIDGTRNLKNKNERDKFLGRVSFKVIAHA

CC[N+](C)(C)Cc1ccccc1Br [bretylium]
Slope of replot of A versus inhibitor concentration (unprotonated pump) ([1]; human red blood cells): 0.392 ± 0.078
Slope of replot of B versus inhibitor concentration (protonated pump) ([1]; human red blood cells): 0.282 ± 0.019

N=C(N)N.O=[N+]([O-])O [guanidinium, Guanidium (guanidine) nitrate]
Slope of replot of A versus inhibitor concentration (unprotonated pump) ([1]; human red blood cells): 0.175 ± 0.014
Slope of replot of B versus inhibitor concentration (protonated pump) ([1]; human red blood cells): 0.016 ± 0.001

C[C@@H]1O[C@@H](O[C@H]2C[C@@H](O)[C@]3(CO)[C@H]4[C@H](O)C[C@]5(C)[C@@H](C6=CC(=O)OC6)CC[C@]5(O)[C@@H]4CC[C@]3(O)C2)[C@H](O)[C@H](O)[C@H]1O [ouabain]
Fold decrease by protons of the kinetic constant / Ki ([2]; rat red cells): 2.2 fold
Fold increase of the kinetic constant for protons caused by the ligand ([2]; rat red cells): 2.2 fold

[H+] [protons]
Kd ([2]; read-out: KH, proton binding to the pump in the absence of rubidium, rat pump, unloaded): 2.11 nM

[Rb] [rubidium]
Slope of replot of A versus 1/[Rb] ([1]; human red blood cells, A normalized to y intercept 1, Fig. 2b): 1.32 ± 0.07
Slope of replot of B versus 1/[Rb] ([1]; human red blood cells, Fig. 2b): 0.0387 ± 0.0074
KRb, kinetic constant for rubidium binding to the unprotonated pump ([1]; human red cells, from replot of A vs 1/Rb, 37°C): 1.32 ± 0.07 mM
LRb, kinetic constant for rubidium binding to the protonated pump ([1]; human red cells, from replot of B vs 1/Rb, 37°C): 0.0387 ± 0.0074 mM
Slope of replot of A versus 1/[Rb] ([2]; rat red blood cells, A normalized to y intercept 1, Fig. 2a): 0.868 ± 0.101
Slope of replot of B versus 1/[Rb] ([2]; rat red blood cells, Fig. 2a): 0.066 ± 0.0059
Fold decrease by protons of the kinetic constant / Ki ([2]; rat red cells): ~13 fold
KRb, kinetic constant for rubidium binding to the unprotonated pump ([2]; rat red cells, from replot of A vs 1/Rb, 37°C): 0.87 ± 0.1 mM
LRb, kinetic constant for rubidium binding to the protonated pump ([2]; rat red cells, from replot of B vs 1/Rb, 37°C): 0.066 ± 0.006 mM

[Na+] [sodium]
Slope of replot of A versus inhibitor concentration (unprotonated pump) ([1]; human red blood cells): 0.271 ± 0.037
Slope of replot of B versus inhibitor concentration (protonated pump) ([1]; human red blood cells): 0.040 ± 0.006
Fold increase by protons of the kinetic constant ([2]; rat red cells): 7.1 fold

Source: paper PMC2229530 (The Journal of General Physiology, 2002)
